{
  "source": "patent US20250049738A1",
  "about": "“METHOD OF TREATMENT AND SELECTION OF PATIENTS BENEFITING FROM AGOMELATINE BASED ON EEG MEASUREMENTS” (Alto Neuroscience, Inc., priority 2023, published 2025)",
  "test_system": "patients with major depressive disorder",
  "assay": "Open-label trials of adjunctive agomelatine 25 mg at bedtime in MDD; baseline EEG models predicting change in MADRS",
  "format": "in vivo, human",
  "conditions": "for d (Cohen's d, prediction of agomelatine outcome): REC",
  "data": [
    {"smiles": "COc1ccc2cccc(CCNC(C)=O)c2c1", "note": "[agomelatine, N-[2-(7-methoxynaphthalen-1-yl)ethyl]acetamide]", "values": [
      {"measurement": "prediction of agomelatine outcome by relative power", "setting": "EEG machine learning model", "value": "not predictive"},
      {"measurement": "prediction of agomelatine outcome by aperiodic exponent", "setting": "EEG machine learning model, significant at week 4", "value": "also predictive"},
      {"measurement": "Cohen's d effect size, predicted responders vs predicted non-responders, change in MADRS", "setting": "EEG sample entropy machine learning model, cross-validation left-out data of training dataset, all weeks, FIG. 2A", "value": "> 0.4"},
      {"measurement": "Cohen's d, predicted agomelatine responders vs non-responders, observed change in MADRS", "setting": "EEG sample entropy machine learning model, holdout dataset, weeks 4, 6 and 8, FIG. 2B", "value": "≥ 0.4"},
      {"measurement": "implied agomelatine-placebo difference, d", "setting": "EEG-predicted non-responders (sample entropy model), full sample", "value": "−0.06"},
      {"measurement": "implied agomelatine-placebo response, d", "setting": "EEG-predicted responders (sample entropy model), week 8, full sample", "value": 0.58},
      {"measurement": "implied agomelatine-placebo difference, d", "setting": "Pz low gamma sample entropy alone, high entropy patients, full sample", "value": 0.51},
      {"measurement": "implied agomelatine-placebo difference, d", "setting": "Pz low gamma sample entropy alone, low entropy patients, full sample", "value": 0.0},
      {"measurement": "d (Cohen's d, prediction of agomelatine outcome)", "setting": "Approximate Entropy, lower gamma, Week 1", "value": 0.23},
      {"measurement": "d (Cohen's d, prediction of agomelatine outcome)", "setting": "Approximate Entropy, lower gamma, Week 2", "value": 0.29},
      {"measurement": "d (Cohen's d, prediction of agomelatine outcome)", "setting": "Approximate Entropy, lower gamma, Week 4", "value": 0.46},
      {"measurement": "d (Cohen's d, prediction of agomelatine outcome)", "setting": "Detrended Fluctuation Analysis, lower beta, Week 1", "value": 0.49},
      {"measurement": "d (Cohen's d, prediction of agomelatine outcome)", "setting": "Detrended Fluctuation Analysis, lower beta, Week 2", "value": 0.44},
      {"measurement": "d (Cohen's d, prediction of agomelatine outcome)", "setting": "Detrended Fluctuation Analysis, lower beta, Week 4", "value": 0.41},
      {"measurement": "d (Cohen's d, prediction of agomelatine outcome)", "setting": "Detrended Fluctuation Analysis, upper beta, Week 1", "value": 0.19},
      {"measurement": "d (Cohen's d, prediction of agomelatine outcome)", "setting": "Detrended Fluctuation Analysis, upper beta, Week 2", "value": 0.20},
      {"measurement": "d (Cohen's d, prediction of agomelatine outcome)", "setting": "Detrended Fluctuation Analysis, upper beta, Week 4", "value": 0.25},
      {"measurement": "d (Cohen's d, prediction of agomelatine outcome)", "setting": "Higuchi Fractal Dimension, lower beta, Week 1", "value": 0.44},
      {"measurement": "d (Cohen's d, prediction of agomelatine outcome)", "setting": "Higuchi Fractal Dimension, lower beta, Week 2", "value": 0.36},
      {"measurement": "d (Cohen's d, prediction of agomelatine outcome)", "setting": "Higuchi Fractal Dimension, lower beta, Week 4", "value": 0.28},
      {"measurement": "d (Cohen's d, prediction of agomelatine outcome)", "setting": "Higuchi Fractal Dimension, lower gamma, Week 1", "value": 0.64},
      {"measurement": "d (Cohen's d, prediction of agomelatine outcome)", "setting": "Higuchi Fractal Dimension, lower gamma, Week 2", "value": 0.58},
      {"measurement": "d (Cohen's d, prediction of agomelatine outcome)", "setting": "Higuchi Fractal Dimension, lower gamma, Week 4", "value": 0.57},
      {"measurement": "d (Cohen's d, prediction of agomelatine outcome)", "setting": "Higuchi Fractal Dimension, upper beta, Week 1", "value": "−0.29"},
      {"measurement": "d (Cohen's d, prediction of agomelatine outcome)", "setting": "Higuchi Fractal Dimension, upper beta, Week 2", "value": "−0.20"},
      {"measurement": "d (Cohen's d, prediction of agomelatine outcome)", "setting": "Higuchi Fractal Dimension, upper beta, Week 4", "value": "−0.05"},
      {"measurement": "d (Cohen's d, prediction of agomelatine outcome)", "setting": "Higuchi Fractal Dimension, upper gamma, Week 1", "value": 0.16},
      {"measurement": "d (Cohen's d, prediction of agomelatine outcome)", "setting": "Higuchi Fractal Dimension, upper gamma, Week 2", "value": 0.16},
      {"measurement": "d (Cohen's d, prediction of agomelatine outcome)", "setting": "Higuchi Fractal Dimension, upper gamma, Week 4", "value": 0.21},
      {"measurement": "d (Cohen's d, prediction of agomelatine outcome)", "setting": "Katz Fractal Dimension, lower beta, Week 1", "value": 0.47},
      {"measurement": "d (Cohen's d, prediction of agomelatine outcome)", "setting": "Katz Fractal Dimension, lower beta, Week 2", "value": 0.42},
      {"measurement": "d (Cohen's d, prediction of agomelatine outcome)", "setting": "Katz Fractal Dimension, lower beta, Week 4", "value": 0.37},
      {"measurement": "d (Cohen's d, prediction of agomelatine outcome)", "setting": "Katz Fractal Dimension, lower gamma, Week 1", "value": 0.25},
      {"measurement": "d (Cohen's d, prediction of agomelatine outcome)", "setting": "Katz Fractal Dimension, lower gamma, Week 2", "value": 0.23},
      {"measurement": "d (Cohen's d, prediction of agomelatine outcome)", "setting": "Katz Fractal Dimension, lower gamma, Week 4", "value": 0.23},
      {"measurement": "d (Cohen's d, prediction of agomelatine outcome)", "setting": "Katz Fractal Dimension, upper beta, Week 1", "value": 0.42},
      {"measurement": "d (Cohen's d, prediction of agomelatine outcome)", "setting": "Katz Fractal Dimension, upper beta, Week 2", "value": 0.40},
      {"measurement": "d (Cohen's d, prediction of agomelatine outcome)", "setting": "Katz Fractal Dimension, upper beta, Week 4", "value": 0.42},
      {"measurement": "d (Cohen's d, prediction of agomelatine outcome)", "setting": "Katz Fractal Dimension, upper gamma, Week 1", "value": 0.04},
      {"measurement": "d (Cohen's d, prediction of agomelatine outcome)", "setting": "Katz Fractal Dimension, upper gamma, Week 2", "value": 0.10},
      {"measurement": "d (Cohen's d, prediction of agomelatine outcome)", "setting": "Katz Fractal Dimension, upper gamma, Week 4", "value": 0.23},
      {"measurement": "d (Cohen's d, prediction of agomelatine outcome)", "setting": "Largest Lyapunov Exponent, upper alpha, Week 1", "value": 0.10},
      {"measurement": "d (Cohen's d, prediction of agomelatine outcome)", "setting": "Largest Lyapunov Exponent, upper alpha, Week 2", "value": 0.12},
      {"measurement": "d (Cohen's d, prediction of agomelatine outcome)", "setting": "Largest Lyapunov Exponent, upper alpha, Week 4", "value": 0.18},
      {"measurement": "d (Cohen's d, prediction of agomelatine outcome)", "setting": "Largest Lyapunov Exponent, upper gamma, Week 1", "value": "−0.02"},
      {"measurement": "d (Cohen's d, prediction of agomelatine outcome)", "setting": "Largest Lyapunov Exponent, upper gamma, Week 2", "value": 0.08},
      {"measurement": "d (Cohen's d, prediction of agomelatine outcome)", "setting": "Largest Lyapunov Exponent, upper gamma, Week 4", "value": 0.29},
      {"measurement": "d (Cohen's d, prediction of agomelatine outcome)", "setting": "Lempel-Ziv Complexity, lower gamma, Week 1", "value": "−0.06"},
      {"measurement": "d (Cohen's d, prediction of agomelatine outcome)", "setting": "Lempel-Ziv Complexity, lower gamma, Week 2", "value": 0.01},
      {"measurement": "d (Cohen's d, prediction of agomelatine outcome)", "setting": "Lempel-Ziv Complexity, lower gamma, Week 4", "value": 0.15},
      {"measurement": "d (Cohen's d, prediction of agomelatine outcome)", "setting": "Lempel-Ziv Complexity, upper alpha, Week 1", "value": 0.21},
      {"measurement": "d (Cohen's d, prediction of agomelatine outcome)", "setting": "Lempel-Ziv Complexity, upper alpha, Week 2", "value": 0.17},
      {"measurement": "d (Cohen's d, prediction of agomelatine outcome)", "setting": "Lempel-Ziv Complexity, upper alpha, Week 4", "value": 0.13},
      {"measurement": "d (Cohen's d, prediction of agomelatine outcome)", "setting": "Modified Multiscale Entropy, lower alpha, Week 1", "value": 0.08},
      {"measurement": "d (Cohen's d, prediction of agomelatine outcome)", "setting": "Modified Multiscale Entropy, lower alpha, Week 2", "value": 0.11},
      {"measurement": "d (Cohen's d, prediction of agomelatine outcome)", "setting": "Modified Multiscale Entropy, lower alpha, Week 4", "value": 0.19},
      {"measurement": "d (Cohen's d, prediction of agomelatine outcome)", "setting": "Modified Multiscale Entropy, lower gamma, Week 1", "value": "−0.09"}
    ]}
  ]
}
